Test results published in PubChem BioAssay AID328 (DTP/NCI, 2004).
Inconclusive results and toxic doses are left out. Non-standard residues stand in square brackets, D forms with d. Residues, ends and D or L forms follow the SMILES beside them. *: point of attachment. Nle = CCCC[CH](N)C(=O)O; Cbz = O=C(OCc1ccccc1)*; OBn = c1ccc(CO*)cc1

System: BDF1 mice, P388 leukemia ip, median survival T/C
Experiment: NCI In Vivo Anticancer Drug Screen. Data for tumor model P388 Leukemia (intraperitoneal) in B6D2F1 (BDF1) mice
Settings: endpoint: median survival time, higher = longer survival
How it was run: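 Each value expresses how treatment altered survival: treated-mouse outcome over vehicle-mouse outcome, both groups bearing the transplanted tumour.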

[1] = dose: 50.0 mg/kg/injection, schedule: Q01DX009 (ip), vehicle: saline with Tween-80
[2] = dose: 100.0 mg/kg/injection, schedule: Q04DX003 (ip), vehicle: saline with Tween-80
[3] = dose: 200.0 mg/kg/injection, schedule: Q04DX003 (ip), vehicle: saline with Tween-80
[4] = dose: 400.0 mg/kg/injection, schedule: Q04DX003 (ip), vehicle: saline with Tween-80
[5] = dose: 12.5 mg/kg/injection, schedule: Q01DX009 (ip), vehicle: Klucel (hydroxypropylcellulose) (HPC)
[6] = dose: 25.0 mg/kg/injection, schedule: Q01DX009 (ip), vehicle: Klucel (hydroxypropylcellulose) (HPC)
[7] = dose: 100.0 mg/kg/injection, schedule: Q04DX003 (ip), vehicle: Klucel (hydroxypropylcellulose) (HPC)
[8] = dose: 200.0 mg/kg/injection, schedule: Q04DX003 (ip), vehicle: Klucel (hydroxypropylcellulose) (HPC)
[9] = dose: 400.0 mg/kg/injection, schedule: Q04DX003 (ip), vehicle: Klucel (hydroxypropylcellulose) (HPC)
[10] = dose: 12.5 mg/kg/injection, schedule: Q01DX009 (ip), vehicle: saline
[11] = dose: 25.0 mg/kg/injection, schedule: Q01DX009 (ip), vehicle: saline
[12] = dose: 50.0 mg/kg/injection, schedule: Q01DX009 (ip), vehicle: saline
[13] = dose: 100.0 mg/kg/injection, schedule: Q04DX003 (ip), vehicle: saline
[14] = dose: 200.0 mg/kg/injection, schedule: Q04DX003 (ip), vehicle: saline
[15] = dose: 100.0 mg/kg/injection, schedule: Q01DX009 (ip), vehicle: saline
[16] = dose: 200.0 mg/kg/injection, schedule: Q01DX009 (ip), vehicle: saline

With `Cc1ccc2c(c1)CC(C)([CH2][Hg][Cl])O2` (centres undefined) the T/C (dose: 3.0 mg/kg/injection, schedule: Q01DX009 (ip), vehicle: Klucel (hydroxypropylcellulose) (HPC)) was 94 % of control, the T/C (dose: 3.0 mg/kg/injection, schedule: Q04DX003 (ip), vehicle: Klucel (hydroxypropylcellulose) (HPC)) was 103 % of control and the T/C (dose: 6.0 mg/kg/injection, schedule: Q01DX009 (ip), vehicle: Klucel (hydroxypropylcellulose) (HPC)) was 105 % of control. The T/C (dose: 6.0 mg/kg/injection, schedule: Q04DX003 (ip), vehicle: Klucel (hydroxypropylcellulose) (HPC)) was 94 % of control, the T/C (dose: 12.0 mg/kg/injection, schedule: Q01DX009 (ip), vehicle: Klucel (hydroxypropylcellulose) (HPC)) was 119 % of control and the T/C (dose: 12.0 mg/kg/injection, schedule: Q04DX003 (ip), vehicle: Klucel (hydroxypropylcellulose) (HPC)) was 100 % of control.
With `C(=Nc1ccccc1)c1ccc(C=Nc2ccccc2)cc1` the T/C [1] was 110 % of control, the T/C (dose: 100.0 mg/kg/injection, schedule: Q01DX009 (ip), vehicle: saline with Tween-80) was 105 % of control and the T/C [2] was 104 % of control. For the same compound, the T/C (dose: 200.0 mg/kg/injection, schedule: Q01DX009 (ip), vehicle: saline with Tween-80) was 100 % of control, the T/C [3] was 109 % of control and the T/C [4] was 100 % of control.
In the case of `O=C1C(Cl)=C(N=Nc2c(Cl)c(O)c3ccccc3c2O)C(=O)c2ccccc21`, the T/C (dose: 3.12 mg/kg/injection, schedule: Q01DX009 (ip), vehicle: Klucel (hydroxypropylcellulose) (HPC)) is reported as 110 % of control, the T/C (dose: 6.25 mg/kg/injection, schedule: Q01DX009 (ip), vehicle: Klucel (hydroxypropylcellulose) (HPC)) is reported as 115 % of control and the T/C [5] is reported as 116 % of control. The T/C [6] was 109 % of control.
In the case of `CN(C)CCOCN1COCC1(C)C`, the T/C [1] is reported as 120 % of control.
For `C=C1C[C@H]2[C@@H]3C=C(C)C4=CC(=O)CC[C@]4(C)[C@H]3CC[C@]2(C)[C@@]1(OC(C)=O)C(C)=O`, the T/C (dose: 62.5 mg/kg/injection, schedule: Q01DX010 (sc), vehicle: steriod suspending solution) was 105 % of control, the T/C (dose: 125.0 mg/kg/injection, schedule: Q01DX010 (sc), vehicle: steriod suspending solution) was 110 % of control and the T/C (dose: 250.0 mg/kg/injection, schedule: Q01DX010 (sc), vehicle: steriod suspending solution) was 100 % of control. The T/C (dose: 500.0 mg/kg/injection, schedule: Q01DX010 (sc), vehicle: steriod suspending solution) was 110 % of control.
For `O=[N+]([O-])c1ccc(C(Br)C(Br)c2ccccc2Br)cc1` (centres undefined), the T/C [7] was 100 % of control, the T/C [8] was 95 % of control and the T/C [9] was 90 % of control.
`CN(C)Cc1ccc([N+](=O)[O-])cc1` was tested, and the T/C [10] was 116 % of control, the T/C [11] was 119 % of control and the T/C [12] was 104 % of control. The T/C (dose: 50.0 mg/kg/injection, schedule: Q04DX003 (ip), vehicle: saline) was 107 % of control, the T/C [13] was 90 % of control and the T/C [14] was 107 % of control.
For `C[C@]1(O)CC[C@H]2[C@@H]3CCC4=CC(=O)CC[C@]4(C)[C@@]3(F)C(=O)C[C@@]21C`, the T/C [5] was 104 % of control, the T/C [6] was 109 % of control and the T/C (dose: 50.0 mg/kg/injection, schedule: Q01DX009 (ip), vehicle: Klucel (hydroxypropylcellulose) (HPC)) was 90 % of control. The T/C [7] was 100 % of control, the T/C [8] was 100 % of control and the T/C [9] was 104 % of control.
`CCCCC(NC(=O)C1CCCN1C(=O)OCc1ccccc1)C(=O)OCc1ccccc1` (stereo not drawn) (Cbz-Pro-[Nle]-OBn; configuration not given here) was tested, and the T/C (dose: 50.0 mg/kg/injection, schedule: Q01DX005 (ip), vehicle: saline with Tween-80) was 88 % of control, the T/C (dose: 100.0 mg/kg/injection, schedule: Q01DX005 (ip), vehicle: saline with Tween-80) was 101 % of control and the T/C (dose: 200.0 mg/kg/injection, schedule: Q01DX005 (ip), vehicle: saline with Tween-80) was 97 % of control.
For `COc1cccc2c1C(=O)c1c(O)c3c(c(O)c1C2=O)C[C@@](O)(/C(CO)=N/NC(=O)c1ccccc1)C[C@@H]3OC1CC(N)C(O)C(C)O1` (some centres undefined), the T/C (dose: 3.12 mg/kg/injection, schedule: Q01DX009 (ip), vehicle: water) was 180 % of control, the T/C (dose: 6.25 mg/kg/injection, schedule: Q01DX009 (ip), vehicle: water) was 252 % of control and the T/C (dose: 12.5 mg/kg/injection, schedule: Q01DX009 (ip), vehicle: water) was 267 % of control.
`COC1=CC(=O)c2c(O)cc(OC)cc2C1=O` was tested, and the T/C (dose: 1.25 mg/kg/injection, schedule: Q01DX009 (ip), vehicle: saline with Tween-80) was 120 % of control and the T/C (dose: 2.5 mg/kg/injection, schedule: Q01DX009 (ip), vehicle: saline with Tween-80) was 95 % of control.
With `CC[N+](C)(C)Cc1ccccc1` the T/C (dose: 6.25 mg/kg/injection, schedule: Q01DX009 (ip), vehicle: saline) was 106 % of control and the T/C [10] was 106 % of control.
For `COC(=O)C1C2CCc3cc(OC)ccc3C2CC(=O)C1(C)C(=O)OC` (centres undefined), the T/C (dose: 100.0 mg/kg/injection, schedule: Q04DX003 (sc), vehicle: steriod suspending solution) was 109 % of control, the T/C (dose: 200.0 mg/kg/injection, schedule: Q04DX003 (sc), vehicle: steriod suspending solution) was 90 % of control and the T/C (dose: 400.0 mg/kg/injection, schedule: Q04DX003 (sc), vehicle: steriod suspending solution) was 95 % of control.
With `N/C(=N\OS(=O)(=O)c1ccccc1)Oc1ccccc1` the T/C [2] was 97 % of control, the T/C [3] was 95 % of control and the T/C [4] was 99 % of control.
For `O=[N+]([O-])c1cccc(N/N=C\c2c(Cl)n(-c3ccccc3)c3ccccc23)c1`, the T/C (dose: 100.0 mg/kg/injection, schedule: Q04DX002 (ip), vehicle: Klucel (hydroxypropylcellulose) (HPC)) was 97 % of control, the T/C (dose: 200.0 mg/kg/injection, schedule: Q04DX002 (ip), vehicle: Klucel (hydroxypropylcellulose) (HPC)) was 93 % of control and the T/C (dose: 400.0 mg/kg/injection, schedule: Q04DX002 (ip), vehicle: Klucel (hydroxypropylcellulose) (HPC)) was 99 % of control.
`[O-][n+]1c(-c2ccccc2)c(C(O)c2ccccc2)nc2ccccc21` (centres undefined) was tested, and the T/C (dose: 100.0 mg/kg/injection, schedule: Q01DX001 (ip), vehicle: saline with Tween-80) was 105 % of control, the T/C (dose: 200.0 mg/kg/injection, schedule: Q01DX001 (ip), vehicle: saline with Tween-80) was 94 % of control and the T/C (dose: 400.0 mg/kg/injection, schedule: Q01DX001 (ip), vehicle: saline with Tween-80) was 96 % of control.
`CCC1=CCN2CCC34c5cc(C6(C(=O)OC)CC7CC(CC)CN(CCc8c6[nH]c6ccccc86)C7)c(OC)cc5N(C)C3C(O)(C(=O)OC)C(OC(C)=O)C1C24` (centres undefined) was tested, and the T/C (dose: 0.03 mg/kg/injection, schedule: Q01DX010 (ip), vehicle: saline) was 100 % of control, the T/C (dose: 0.06 mg/kg/injection, schedule: Q01DX010 (ip), vehicle: saline) was 104 % of control and the T/C (dose: 0.13 mg/kg/injection, schedule: Q01DX010 (ip), vehicle: saline) was 95 % of control. For the same compound, the T/C (dose: 0.25 mg/kg/injection, schedule: Q01DX010 (ip), vehicle: saline) was 100 % of control and the T/C (dose: 0.5 mg/kg/injection, schedule: Q01DX010 (ip), vehicle: saline) was 86 % of control.
`O=C(O)CCNCc1ccccc1` was tested, and the T/C [11] was 93 % of control, the T/C [12] was 108 % of control and the T/C [15] was 117 % of control. The T/C [16] was 88 % of control.
For `c1ccc(OCC2CO2)c(OCC2CO2)c1` (centres undefined), the T/C (dose: 60.0 mg/kg/injection, schedule: Q01DX005 (ip), vehicle: saline with Tween-80) was 157 % of control, the T/C (dose: 120.0 mg/kg/injection, schedule: Q01DX005 (ip), vehicle: saline with Tween-80) was 185 % of control and the T/C (dose: 240.0 mg/kg/injection, schedule: Q01DX005 (ip), vehicle: saline with Tween-80) was 171 % of control.
In the case of `CC(=O)NC1CCCC(O)C1` (centres undefined), the T/C [15] is reported as 90 % of control, the T/C [13] is reported as 100 % of control and the T/C [16] is reported as 95 % of control. For the same compound, the T/C [14] was 113 % of control, the T/C (dose: 400.0 mg/kg/injection, schedule: Q01DX009 (ip), vehicle: saline) was 100 % of control and the T/C (dose: 400.0 mg/kg/injection, schedule: Q04DX003 (ip), vehicle: saline) was 104 % of control.
For `C/C=C(\CC)C(=O)NC(N)=O`, the T/C (dose: 100.0 mg/kg/injection, schedule: Q01DX009 (ip), vehicle: Klucel (hydroxypropylcellulose) (HPC)) was 95 % of control, the T/C (dose: 200.0 mg/kg/injection, schedule: Q01DX009 (ip), vehicle: Klucel (hydroxypropylcellulose) (HPC)) was 100 % of control and the T/C (dose: 400.0 mg/kg/injection, schedule: Q01DX009 (ip), vehicle: Klucel (hydroxypropylcellulose) (HPC)) was 122 % of control.
